Where “and” joins values, the source holds several entries; their conditions need not be identical. Equal values may be shown once.
What was measured:
Lewis rats = test: Rat heart transplantation (Brown Norway into Lewis); type: in vivo; conditions: for Onset of Rejection: d − 3 to d + 9, heart allograft
Protocol: The studies reported here relate to Brown Norway rat tissue transplanted into Lewis rats. This model, a highly histo-incompatible donor/recipient pair, provides a very stringent test with predictive value in human transplantation. Known general immunosuppressive agents show immunosuppressive activity in these models. Several forums of this model are used in the studies reported here.
These studies were performed in the laboratory of Dr. Randy Morris of Stanford University. Whole rat hearts were grafted into host rats which were examined daily thereafter for signs of rejection.
A control group comprised twelve recipients treated daily i.v. only with buffer control. The graft survival times were: 6d (x4), 7d (x7), and 8d, giving a mean survival of […]+/−0.6d (SD). The final day of survival is defined as the day on which the donor heart ceased to contract as assessed by lack of obvious palpitations and as confirmed by direct visualization at laparotomy.
Five recipients were treated with the recombinant lectin. All animals were pretreated with 1 mg/kg i.v. lectin on days −3, −2 and −1. The first two animals were then treated postoperatively with 1 mg/kg/d i.v. with lectin from day 1 until graft rejection. The second three animals were treated in the postoperative period from day 1 until graft rejection with 2 mg/kg/d i.v. of lectin. Graft survivals were 9 and 10d for the first group of rats, and 9, 10 and 11d for the second group. No dramatic increase in survival was seen by doubling the dose of lectin in group two in the postoperative period. Therefore, graft survival times of both groups were combined for statistical analysis. When graft survival was analyzed, lectin treatment produced a mean graft survival of 9.8+/−0.84d (SD), +/−0.38d (SEM) with a 95% confidence limit. Using the one-tailed Mann-Whitney U-test to compare the differences between the graft survival times for the saline and lectin-treated groups, a P value of 0.00096 was obtained.

lymph node cells = test: Proliferative response of draining lymph node cells of GPBP/CFA-injected rats; type: in vivo, rat
Protocol: At the indicated times after injection of 50 μg GPBP/CFA, lymph nodes draining the site of injection were collected and tested for a proliferative response to GPBP, purified protein derivative (PPD), and the T-cell mitogen, Concanavalin A (ConA). Consistent with the DTH test, lymph node cells of the lectin-treated rats had low or absent responses to both GPBP and PPD relative to control rats, especially on days 14 and 21 during which EAE onset occurs.

BALB/c mice = test: Primary immune response: serum antibody levels; type: in vivo, mouse
Protocol: The effect of coadministration of lectin on the B-cell repertoire mounted as a primary response to immunization was also tested directly by antibody formation in the sera. Immunoassays for antibody content for the various antigens were performed as follows:
For immunization with Torpedo acetylcholine receptor, microtiter: wells were coated overnight with 100 μl of a solution containing 5 μg/ml of purified receptor as prepared in Example 8, Part A, and incubated with serum (diluted 1/25) for 3 hours at 37° C. After washing, the plates were incubated for 3 hours at 37° C. with alkaline phosphatase-conjugated goat anti-mouse immunoglobulins. The plates were then washed extensively and incubated for 1 hour at 37° C. with […] ethanolamine buffer. The reaction was stopped by addition of 25 μl of 3 M NaOH, and the binding of the labeled antibody was measured in an ELISA microreader at 405 nm. […]
For antibodies against mouse AChR, antibodies were determined using as antigen a complex between a partially purified normal mouse skeletal muscle receptor and ^125I-alpha-bungarotoxin. […]
. […] The reaction was stopped by addition of 25 μl of 3 M NaOH, and the binding of the labeled antibody was measured in an ELISA microreader at 405 nm. […]
. Blood was obtained after 3 days and again after 1, 2, 3 and 4 weeks and antibody levels were determined as described above.

Lewis rat = test: Experimental autoimmune encephalomyelitis (EAE) induced with GPBP/CFA; type: in vivo
Excerpt: Experimental autoimmune encephalomyelitis (EAE) is a T-cell-mediated disease considered to be a useful model for human paralytic and demyelinating diseases such as multiple sclerosis (Vandenbark, A. et al., J. Immunol. (1985) 135:223). In the Lewis rat, paralytic signs of EAE are induced about 14 days after injecting guinea pig myelin basic protein (GPBP) in Complete Freund's Adjuvant (CFA). It has been shown by Offner, H. et al. (J. Immunol. (1988) 141:3288) that T-cells specific for GPBP in immunized rats recognize amino acid residues 72-89 of GPBP and have the ability to transfer both clinical signs of EAE and delayed-type hypersensitivity reaction to GPBP to other animals.
In the studies reported in this example, EAE was induced by injection of GPBP/CFA as described above.
In one protocol intravenous administration of lectin was started at day 0 relative to 50 μg GPBP/CFA injection, with additional lectin treatment at days 3 and 6. The severity of the disease was determined clinically and histologically:
“Clinical” Ratings are as Follows:
3=Hind quarter paralysis.
“Histologic” Ratings are as Follows:
Slides were examined for degree of inflammation with ratings as follows:
0.5=a few infiltrating cells in the meninges;
1=meningeal infiltration, more organized and concentrated around blood vessels;
2-4=increasing intensity of meningeal infiltration and perivascular cuffing in the CNS parenchyma.
In a second protocol, lectin was first administered three days before immunization with 50 μg GPBP/CFA and was followed by daily injections until day 7 after immunization.
In an additional experiment, animals were given various doses of lectin on days 0-12, following the administration of 10 μg GPBP injected intramuscularly.

[1] = 250 μg lectin Days −3 to 6 daily
[2] = 250 μg lectin Days −3 to 6 daily, background subtracted
[3] = 250 μg lectin Days −3 to 6 daily, scale 0-4

Question: How did the “Graft survival, individual animals” value (Lewis rats; 1 mg/kg i.v. days −3 to −1, then 1 mg/kg/d i.v. until rejection) turn out when “Lectin: Soluble 14 kD β-galactoside-binding HL-60/placenta lectin of FIG. 1 (SEQ ID NO:2), prepared recombinantly in E. coli” was run?
Answer: Its value is 9 days and 10 days.

Question: What about the “Graft survival, individual animals” value (Lewis rats; 1 mg/kg i.v. days −3 to −1, then 2 mg/kg/d i.v. until rejection) of the same substance?
Answer: The value was 9 days and 10 days and 11 days.

Question: What about the “Onset of Rejection” value (Lewis rats; 1 mg/kg) of the same substance?
Answer: Its value is 9.8 ± .8 days.

Question: What about the “Onset of Rejection” value (Lewis rats; 2 mg/kg) of the same substance?
Answer: Its value is 9.8 ± .8 days.

Question: What about the “toxicity as might be manifested by weight loss” value (Lewis rats; 1-2 mg/kg/d i.v.) of the same substance?
Answer: Its value is “no noticeable toxicity”.

Question: What about the “mean graft survival (SD)” value (Lewis rats; both lectin dose groups combined, five recipients) of the same substance?
Answer: Its value is 9.8 ± 0.84 days.

Question: What about the “lymph node cell proliferative responses to GPBP and PPD” value (lymph node cells; lectin-treated rats relative to control, especially days 14 and 21, FIG. 12) of the same substance?
Answer: Its value is “low or absent”.

Question: What about the “lymph node cell responses to ConA” value (lymph node cells; lectin-treated rats, FIG. 12) of the same substance?
Answer: Its value is “normal or augmented”.

Question: And the “primary immune response to pneumococcal polysaccharide (T-independent antigen)” value (BALB/c mice; any dose, FIG. 7)?
Answer: Its value is “No effect”.

Question: What about the “primary immune response to T-dependent antigens” value (BALB/c mice; higher doses of lectin (15 and 25 μg), FIGS. 6, 8, 9) of the same substance?
Answer: The value was “significantly lowered”.

Question: And the “Duration” value (Lewis rat; 250 μg lectin Days 0, 3, 6)?
Answer: The value was 3.0 days and 3 days.

Question: And the “Loss of Weight” value (Lewis rat; 250 μg lectin Days 0, 3, 6)?
Answer: The value was 20 g.

Question: What about the “Severity of Disease, Histological Rating” value (Lewis rat; 250 μg lectin Days 0, 3, 6, scale 0-4) of the same substance?
Answer: The value was 3.5.

Question: And the “Duration (days)” value (Lewis rat; [1])?
Answer: Its value is 0^3 days.

Question: What about the “Loss of Weight (g)” value (Lewis rat; [1]) of the same substance?
Answer: Its value is “None^3”.

Question: What about the “GPBP DTH (delayed type hypersensitivity reaction, swelling)” value (Lewis rat; [2]) of the same substance?
Answer: The value was 9 mm/100.

Question: What about the “PPD DTH (delayed type hypersensitivity reaction, swelling)” value (Lewis rat; [2]) of the same substance?
Answer: Its value is 4 mm/100.

Question: What about the “Clinical Severity of Disease” value (Lewis rat; [3]) of the same substance?
Answer: Its value is 0^3/.

Question: And the “Histologic Severity of Disease” value (Lewis rat; [3])?
Answer: The value was 0.50^3.

Question: What about the “Day of Onset” value (Lewis rat; 250 μg lectin i.v. Days 0, 3, 6, 50 μg GPBP/CFA) of the same substance?
Answer: The value was 17 days.

Question: What about the “daily dosage optimal for ameliorating the symptoms” value (Lewis rat; 10-1500 μg intraperitoneally days 0-12, 10 μg GPBP, FIGS. 10 and 11) of the same substance?
Answer: The value was 500 µg.

Question: And the “development of the disease (EAE)” value (Lewis rat; lectin from three days before immunization, daily until day 7)?
Answer: Its value is “prevented completely”.

Reference: patent publication US6406679B1, “Use of HL-60-related lectins in drug delivery and detection of lectin-expressing cells” (Incyte Pharmaceuticals, Inc., priority 1992, dated 2002)
